Values quoted from earlier work, collected in patent US12357578B2, “Ibuprofen and famotidine tablet” (APPCO PHARMA LLC, priority 2020, dated 2025).

## CC(C)Cc1ccc(C(C)C(=O)O)cc1 (racemic) [Ibuprofen, (±)-2-(p-isobutylphenyl) propionic acid]
Organic solvents such as ethanol and acetone
  Solubility in organic solvents (in words): readily soluble
water
  Solubility in water: < 1000 µg/mL
  Solubility in water (in words): very slightly soluble

## NC(N)=Nc1nc(CSCCC(N)=NS(N)(=O)=O)cs1 [Famotidine]
ethanol
  Solubility in ethanol (in words): practically insoluble
Glacial acetic acid
  Solubility in glacial acetic acid (in words): freely soluble
methanol
  Solubility in methanol (in words): slightly soluble
water
  Solubility in water (in words): very slightly soluble
